Test results from patent publication US20100227853A1, “INHIBITORS OF CYCLIC AMP PHOSPHODIESTERASES” (Trustees of Boston College, priority 2008, published 2010).
Values joined by “and” are separate entries in the source; they are usually repeats but may differ in a detail not shown here. Equal entries are not always repeated. “Also recorded” adds a separate entry of the source.

Columns and labels:
[1] = tested on: PDE4A, PDE4B, PDE4D, PDE7A, PDE7B, PDE8A, PDE3A; assay: Summary of PDE inhibitor profile; set-up: key: (1): Weak PDE7A inhibitor; (2): Strong PDE7A inhibitor; (3): Lillte/no activity under conditions used; (4): Weak PDE4A inhibitor; settings: overall classification, Table 18 footnotes
[2] = molecular target: PDE7A (Homo sapiens, UniProt Q13946); assay: cAMP response in yeast strain expressing PDE7A; format: cell-based; set-up: targets used in the assays are full-length proteins (as opposed to simply the catalytic domain); expressed in transfected cells; host or cells: Schizosaccharomyces pombe, PDE gene integrated in place of cgs2; settings: PDE 7A; relative to BRL50481
Chain of PDE7A (Q13946 whole entry, the tested form may be a part): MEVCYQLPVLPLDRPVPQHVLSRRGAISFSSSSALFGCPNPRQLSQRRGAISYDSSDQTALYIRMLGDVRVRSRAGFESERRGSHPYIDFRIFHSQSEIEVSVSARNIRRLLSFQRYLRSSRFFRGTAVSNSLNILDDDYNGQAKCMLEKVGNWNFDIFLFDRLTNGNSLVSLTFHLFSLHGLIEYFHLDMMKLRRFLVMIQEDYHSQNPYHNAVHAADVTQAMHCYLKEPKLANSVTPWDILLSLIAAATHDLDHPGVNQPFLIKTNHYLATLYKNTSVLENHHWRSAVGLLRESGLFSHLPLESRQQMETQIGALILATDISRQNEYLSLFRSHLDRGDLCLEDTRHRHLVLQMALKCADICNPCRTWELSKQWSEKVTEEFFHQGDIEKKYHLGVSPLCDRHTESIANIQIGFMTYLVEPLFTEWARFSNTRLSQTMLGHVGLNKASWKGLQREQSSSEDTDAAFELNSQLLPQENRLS

[3] = molecular target: T1, PDE2A (Mus musculus, UniProt Q922S4); assay: cAMP levels in yeast strain expressing PDE2A; format: cell-based, murine; settings: 20 μM EHNA as compared to 200 μM
T1 construct: targets used in the assays are full-length proteins (as opposed to simply the catalytic domain); expressed in transfected cells; host or cells: Schizosaccharomyces pombe, PDE gene integrated in place of cgs2 (strains LWP371, LWP364)
T1 sequence (Q922S4 1-939): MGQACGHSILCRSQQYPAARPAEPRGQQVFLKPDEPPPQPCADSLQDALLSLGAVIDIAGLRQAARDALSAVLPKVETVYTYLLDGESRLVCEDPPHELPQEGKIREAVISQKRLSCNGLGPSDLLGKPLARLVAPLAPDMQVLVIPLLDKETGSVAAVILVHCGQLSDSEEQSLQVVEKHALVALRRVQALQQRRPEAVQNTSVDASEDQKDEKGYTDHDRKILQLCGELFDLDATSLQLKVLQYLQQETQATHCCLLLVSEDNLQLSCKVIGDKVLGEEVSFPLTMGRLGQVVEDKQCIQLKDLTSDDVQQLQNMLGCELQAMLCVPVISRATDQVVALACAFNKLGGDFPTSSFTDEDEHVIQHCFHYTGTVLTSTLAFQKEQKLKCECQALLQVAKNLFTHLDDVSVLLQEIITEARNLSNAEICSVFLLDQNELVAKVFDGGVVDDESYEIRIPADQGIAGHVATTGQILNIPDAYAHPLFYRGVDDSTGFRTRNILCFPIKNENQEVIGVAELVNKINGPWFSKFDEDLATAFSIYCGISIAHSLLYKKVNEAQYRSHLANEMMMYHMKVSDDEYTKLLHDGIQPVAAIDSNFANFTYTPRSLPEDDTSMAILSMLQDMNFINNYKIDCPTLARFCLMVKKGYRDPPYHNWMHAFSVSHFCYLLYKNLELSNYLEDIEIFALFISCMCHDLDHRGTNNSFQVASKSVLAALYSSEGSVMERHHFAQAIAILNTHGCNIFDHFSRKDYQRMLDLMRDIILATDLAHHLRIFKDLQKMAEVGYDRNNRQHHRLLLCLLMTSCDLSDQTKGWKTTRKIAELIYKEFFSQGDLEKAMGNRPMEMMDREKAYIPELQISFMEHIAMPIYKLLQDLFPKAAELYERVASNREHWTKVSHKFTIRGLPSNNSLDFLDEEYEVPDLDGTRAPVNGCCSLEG
Protocol: Values represent the average and SD of two or three independent experiments. […] The strains used are as in FIG. 5A, together with strain CHP1141 (PDE8A). Values represent the average and SD of two or three independent experiments.
(§1) β-galactosidase assays and characterization of 5FOA-sensitivity were carried out as previously described^10. cAMP assays were performed on exponential phase cells grown in EMM complete medium (3% glucose), using the Assay Designs cAMP EIA kit, according to manufacturer's instructions (Assay Designs, Ann arbor, Mich.).
Thus, PDE inhibition can be indirectly quantitated by measuring the effect of a compound on cAMP levels in target yeast strains.

[4] = molecular target: T1, PDE2A; assay: fbp1-lacZ β-galactosidase reporter assay, PDE2A strain; format: cell-based, murine; settings: strain LWP367 (PDE2A)
Protocol: as §1
The effect of known PDE inhibitors on the expression of the fbp1-lacZ fusion in murine PDE-expressing strains was tested. […] For Table 4 β-galactosidase activity was determined from 3 to 4 independent exponential phase cultures. The average±SD represents specific activity per milligram of soluble protein.

[5] = tested on: Jurkat cells; assay: IL2 secretion by concanavalin A treated Jurkat cells; format: cell-based, human; settings: ConA 10 μg/ml, prostaglandin E2, 24 hours
Text: Jurkat cells, a human T cell lymphoblast-like cell line, increase expression of the cytokine IL2 in response to stimulation by concanavalin A (conA). This effect can be inhibited by elevated cAMP levels, although PDE4 inhibition alone appears to be insufficient to prevent IL2 induction (Kaminuma et al., Immunopharmacology, 1998 January; 38(3):247-52). However, the anti-inflammatory effect of PDE4 inhibitors can be detected using this assay by their ability to enhance the reduction of IL2 secretion by prostaglandin E2. IL2 levels are measured in Jurkat cells (5×10^5 cells/ml) stimulated by 10 μg/ml ConA in the presence of prostaglandin E2, with or without each test compound ([…]). After incubation at 37° C. for 24 hours, the resulting supernatant were collected and kept frozen at −70° C. until the time of assay. IL2 in the supernatants were measured by ELISA and the data is presented as a percentage of the PGE2 treated culture (FIG. 12).

[6] = molecular target: PDE7B (Homo sapiens, UniProt Q9NP56); assay: cAMP elevation in yeast PDE7B-expressing strain; format: cell-based; set-up: targets used in the assays are full-length proteins (as opposed to simply the catalytic domain); expressed in transfected cells; host or cells: Schizosaccharomyces pombe
Chain of PDE7B (Homo sapiens, UniProt Q9NP56) (Q9NP56 whole entry, species assumed, the tested form may be a part): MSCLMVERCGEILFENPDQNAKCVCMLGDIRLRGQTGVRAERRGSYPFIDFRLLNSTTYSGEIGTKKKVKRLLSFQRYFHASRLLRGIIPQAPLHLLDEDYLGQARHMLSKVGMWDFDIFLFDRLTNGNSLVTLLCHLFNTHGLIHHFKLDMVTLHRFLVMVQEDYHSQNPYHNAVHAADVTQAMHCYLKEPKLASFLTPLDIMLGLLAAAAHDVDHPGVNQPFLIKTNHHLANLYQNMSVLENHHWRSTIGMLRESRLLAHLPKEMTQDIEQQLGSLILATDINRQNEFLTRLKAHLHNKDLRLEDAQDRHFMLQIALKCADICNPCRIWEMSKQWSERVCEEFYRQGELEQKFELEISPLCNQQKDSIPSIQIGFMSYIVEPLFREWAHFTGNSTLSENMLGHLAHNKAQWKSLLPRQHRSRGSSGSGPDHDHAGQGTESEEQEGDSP

[7] = tested on: U937 cells; assay: TNF alpha release by LPS-treated U937 cells; format: cell-based
[8] = tested on: PDE4A, PDE4B, PDE4D, PDE7A, PDE7B, PDE8A, PDE3A; assay: Summary of PDE inhibitor profile
[9] = molecular target: T2, PDE7B (Rattus norvegicus, UniProt A0A0G2JXU0); assay: in vitro enzyme assay of PDE7B activity in extracts from rat pulmonary endothelial cells; format: biochemical
T2 construct: endogenous in cells; host or cells: rat pulmonary endothelial cells (extract)
T2 sequence (A0A0G2JXU0 1-446): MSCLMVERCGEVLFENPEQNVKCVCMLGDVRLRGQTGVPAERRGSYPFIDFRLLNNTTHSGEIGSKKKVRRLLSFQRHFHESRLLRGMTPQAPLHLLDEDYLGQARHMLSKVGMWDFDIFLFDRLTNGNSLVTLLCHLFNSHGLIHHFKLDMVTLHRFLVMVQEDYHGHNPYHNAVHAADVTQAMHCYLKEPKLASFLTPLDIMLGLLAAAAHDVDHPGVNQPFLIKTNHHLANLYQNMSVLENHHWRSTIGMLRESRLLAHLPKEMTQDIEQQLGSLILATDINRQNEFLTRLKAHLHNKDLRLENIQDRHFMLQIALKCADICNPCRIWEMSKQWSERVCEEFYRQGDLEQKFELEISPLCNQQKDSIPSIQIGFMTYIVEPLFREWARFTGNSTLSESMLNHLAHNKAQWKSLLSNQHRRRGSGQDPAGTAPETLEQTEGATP
Text: FIG. 13 is the in vitro enzyme assays of PDE7B activity in extracts made from rat pulmonary endothelial cells.

[10] = tested on: transplanted tumors (lymphomas); assay: in vivo assay in mice with transplanted tumors (lymphomas)
Protocol: FIGS. 7A and 7B show results of an in vivo assay of BC54 action.
A 7 day experiment was conducted to determine the effect of BC54 on mice having transplanted tumors (lymphomas). Drugs were given i.p. once a day in 60-100 ul of PBS. • 3 animals got just BC54—to assess toxicity • 3 animals injected with lymphoma and treated with BC54 • 3 animals—no treatment • 1 animal—CHOP 0.5 MTD
BC54 dose was 3 ul of 100 mM solution per mouse per injection. […]. […] After 7 days, the untreated mice were terminally ill. The group treated with BC54 looked better although they do show some clinical signs (hunched posture etc). […] Tumor load was evaluated in the spleen and in the peritoneal lymph nodes (FIG. 7).

[11] = tested on: CLL; assay: CLL assay; format: cell-based
[12] = tested on: PBMC cells; assay: proliferation and viability of PBMC cells; format: cell-based
Text: FIGS. 8A, 8B and 8C show the effect of BC54 on the proliferation and viability of PBMC cells.

[13] = tested on: Lymphoma cells; assay: in vitro assay on lymphoma cells (24 hours, Hoechst stain, fsc/ssc); format: cell-based
Protocol: FIGS. 6A and 6B show the in vitro assay of BC54 action. Lymphoma cells are treated with the drug for 24 hours, then stained with Hoechst dye. The cells form a clearly defined population on the fsc/ssc dot plot. Vincristine treatment was used as a positive control. […] BC54 is referred to in the figure as S54.

[14] = tested on: SIVmac239; assay: antiviral activity, SIV p27 ELISA in infected PBMC; format: cell-based, rhesus macaques; settings: for reduction in viral load: treatment on Day 1 and Day 3, SIV p27 ELISA
Protocol: PBMC cells were isolated from uninfected rhesus macaques and mitogen stimulated (PHA). The cells were then incubated with SIVmac239 for 2 hours, following which they were washed to remove any free virus. BC54 was then added to the infected cells. Fresh compound was added after 3 days. The antiviral activity was measured by SIV p27 ELISA on day 3 and 7, while the cell viability was determined on day 7 by MTT assay. The treatment of cells on Day 1 and Day 3, leads to a 30-fold and 100-fold reduction in viral load on Days 4 and 7, respectively.

COc1ccc2c(c1)C1(C)CCC(=O)CC1CC2 (single isomer, unassigned) [Compound 11] was tested, and the “PDE inhibitor profile (Table 18)” value [1] was 11 (3) and the “cAMP Response (% BRL50481) 7A” value [2] was 89.00 % BRL50481.

CCCCCC[C@@H]([C@@H](C)O)n1cnc2c(N)ncnc21 (racemic) [EHNA] was tested, and the “inhibition of PDE2A judged by cAMP levels” value [3] was “partial inhibition”, the β-galactosidase activity ([4]; 5 μM EHNA) was 473 ± 19 and the β-galactosidase activity ([4]; 20 μM EHNA) was 197 ± 51. For the same compound, the β-galactosidase activity ([4]; 200 μM EHNA) was 45 ± 3.

In the case of Cc1sc2ncnc(NC3CCCCC3)c2c1C [BC28], the “IL2 expression from Jurkat cells, in words” value [5] is reported as “strong reduction”, the “cAMP in yeast PDE7B-expressing strain, in words” value [6] is reported as “induced cAMP elevation” and the “TNF alpha reduction, conclusion in words” value [7] is reported as “TNFα synergy with PDE4 inhibitors, though not as strong as for BC30”. The “PDE inhibitor profile, in words” value [8] was “potent PDE7B inhibitor”, the “KI lower than that of BRL50481” value ([9]; PDE7B, rat pulmonary endothelial cell extracts) was “approximately 100 fold” and the Ki ([9]; cell extracts, read-out: KI on PDE7 (PDE7B) from rat pulmonary endothelial cells) was ~200 nM and 200 nM.

For CCOC(=O)c1cc2c(=O)n3ccccc3nc2n(C2CCCCC2)/c1=N/C(C)=O [BC54], the toxicity in mice ([10]; 3 ul of 100 mM solution per mouse per injection, i.p. once a day) was “no major signs of toxicity”, the spleen tumor burden ([10]; i.p. once a day, 7 days) was “No significant effect” and the “tumor load in lymph nodes” value ([10]; i.p. once a day, 7 days) was “reduces the tumor load in lymph nodes”. The “clinical appearance after 7 days” value ([10]; lymphoma-bearing mice) was “looked better”, the “efficacy in mouse DLBCL model, in words” value ([10]; mouse, in vivo) was “effective” and the “activity in CLL assay, in words” value [11] was “good activity”. For the same compound, the “toxicity to PBMC cells (proliferation and viability)” value [12] was “not found to be very toxic”, the “apoptosis of lymphoma cells, in words” value [13] was “induces apoptosis” and the “"live" population gone” value ([13]; 24 hours treatment) was roughly 100%. The “TNF alpha reduction, conclusion in words” value [7] was “good activity”, the “PDE inhibitor profile, in words” value [8] was “good PDE4 and PDE7 combination inhibitor; also recorded: affects PDE4D, but is weaker than on other 4 s and 7 s” and the “effect on PDE8A or PDE3A” value [8] was “no effect”. For the same compound, the “efficacy in SIV cell culture, in words” value [14] was “effective”, the “reduction in viral load” value ([14]; Day 4) was 30 fold and the “reduction in viral load” value ([14]; Day 7) was 100 fold.
